Experimental findings from ChEMBL document CHEMBL3102847, “Structure of the σ1 receptor and its ligand binding site” (J Med Chem, 2013) are described below.

One may read the Ki as the equilibrium dissociation constant of an inhibitor or competing ligand from its target. The term Kd denotes the concentration at which binding is half-saturated. Low values mean a tighter complex, high ones a looser complex.

Assay [1] has as its target T1, Sigma non-opioid intracellular receptor 1 (Rattus norvegicus, UniProt Q9R0C9). The assay is described as follows: Displacement of [3H]-(+)-pentazocine from sigma 1 receptor in rat liver homogenates. It is filed as tissue-based. (Loss of bound radioactivity is the signal in a displacement assay; it reports binding, not function.)
Assay [2] addresses T2, Sigma non-opioid intracellular receptor 1 (Homo sapiens, UniProt Q99720). Put plainly: Displacement of [125I]N-IACoc from sigma 1 receptor (unknown origin).
Assay [3] addresses T2, Sigma non-opioid intracellular receptor 1. Put plainly: Displacement of [125I]N-IAC44 from sigma 1 receptor (unknown origin).
Assay [4] deals with T1, Sigma non-opioid intracellular receptor 1. The assay is described as follows: Displacement of [125I]IACoc from sigma 1 receptor in rat liver microsomes.

T2 sequence (Q99720 whole entry): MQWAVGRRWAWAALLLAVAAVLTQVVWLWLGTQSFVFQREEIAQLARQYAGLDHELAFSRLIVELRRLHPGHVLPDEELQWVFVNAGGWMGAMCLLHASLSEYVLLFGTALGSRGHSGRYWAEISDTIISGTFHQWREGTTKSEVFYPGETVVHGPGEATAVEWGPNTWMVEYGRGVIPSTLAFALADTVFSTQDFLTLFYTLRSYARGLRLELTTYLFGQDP
T1 sequence (Q9R0C9 whole entry): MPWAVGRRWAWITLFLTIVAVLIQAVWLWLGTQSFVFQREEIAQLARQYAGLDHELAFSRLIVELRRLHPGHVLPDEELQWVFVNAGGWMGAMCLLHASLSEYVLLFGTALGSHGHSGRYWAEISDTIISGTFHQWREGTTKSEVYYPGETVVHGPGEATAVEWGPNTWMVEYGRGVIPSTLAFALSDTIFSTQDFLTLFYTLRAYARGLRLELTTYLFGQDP

`CN(C)CCc1c[nH]c2ccccc12` [N,N-DIMETHYLTRYPTAMINE] gave a Ki in assay [1] of 15400 nM.

In assay [2], `COC(=O)[C@H]1[C@@H](OC(=O)c2ccccc2)C[C@@H]2CC[C@H]1N2CCc1ccc(N=[N+]=[N-])c([125I])c1` yielded a Kd of 11 nM.

In assay [3], `CCCN(CCCc1ccccc1)CCc1ccc(N=[N+]=[N-])c([125I])c1` showed a Kd of 7.2 nM.

The compound `COC(=O)[C@H]1[C@@H](OC(=O)c2ccc(N=[N+]=[N-])c([125I])c2)C[C@@H]2CC[C@H]1N2C` displayed an inhibition constant (Ki) in assay [4] of 0.126 nM.
